Laboratory results reported in the supplement of paper PMC6723410.

Experiments:
[1] = system: GUMC-403; experiment: AC50 for reduction of cell viability; higher = less potent; details: 48 h
[2] = system: GUMC-403; experiment: viability at highest tested concentration (max response) relative to DMSO (% of DMSO control); higher = less cytotoxic; details: library / dose series: MIPE library, 11-point 1:3 dilution; top concentration 46.1 µM; 48 h
In short: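 In 1536-well plates, 700 GUMC-403 papilloma cells per well, taken from a patient and grown by conditional reprogramming, were seeded in 5 μL F + Y medium and incubated overnight at 37 °C. Compounds were pinned in at 23 nL in an 11-point 1:3 series, and left for 48 h before CellTiter-Glo luminescence was read on a ViewLux against vehicle (100%) and empty (0%) wells. Reported values are viability at the highest tested concentration relative to vehicle control.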

[3] = library / dose series: MIPE library, 11-point 1:3 dilution

Row | SMILES | AC50 for reduction of cell viability [1, 3] [µM] | viability [2] | AC50 for reduction of cell viability ([1]; library / dose series: NPC library, 8-point 1:5 dilution) [µM]
1 | NC(=O)c1ccc2[nH]c(-c3ccc(Oc4ccc(Cl)cc4)cc3)nc2c1 | 2.64 | 79.5 | 
2 | CCc1ccc(OCc2ccccc2C(=O)Nc2ccc3nc(C)cc(N)c3c2)cc1 | 10.5 | 4.25 | 
3 | CCc1c(O)cc(O)c(C(=O)c2ccc(OCCN3CCOCC3)c(OC)c2)c1CC(=O)N(CCOC)CCOC | 2.09 | 56.6 | 
4 | COC1=CC=C2/C3=N/CCN3\C(=N/C2=C1OC)NC(=O)C4=CC=CN=C4 | 5.9 | 64.7 | 
5 | O=C1c2ccccc2-[n+]2ccc3c([nH]c4ccccc43)c21 | 4.18 | 3.22 | 
6 | COc1ccc([C@@H]2CNC(=O)C2)cc1OC1CCCC1 | 2.96 | 51 | 
7 | C[C@H](NCc1ccc2c(c1)nc(NC(=O)c1ccc(-c3cn[nH]c3)s1)n2CCc1ccccc1)C(C)(C)C | 3.72 | 8.07 | 
8 | CC1=C2N=C([NH]C2=CC(=C1)N3CCOCC3)\C4=C(NC[C@@H](O)C5=CC=CC(=C5)Cl)\C=C/NC4=O | 0.235 | 13.8 | 
9 | C[C@@]12OC(=O)[C@@]1(NC(=O)[C@@H]2CCCl)[C@@H](O)[C@H]\3CCC\C=C3 | 3.72 | 6.32 | 
10 | CC(C)N[C@@H]1CCn2c(=O)[nH]c3cccc(c32)[C@H]1O | 9.35 | 30.4 | 
11 | C[S+](=O)([O-])CCNCc1ccc(-c2ccc3ncnc(Nc4ccc(OCc5cccc(F)c5)c(Cl)c4)c3c2)o1 | 10.5 | 8.12 | 
12 | CCCCN1CCC(CNC(=O)c2c3n(c4ccccc24)CCCO3)CC1 | 16.6 | 23.8 | 
13 | CN(C)c1ccc(C(=O)NCCCCCCC(=O)NO)cc1 | 18.7 | 33.9 | 
14 | Cc1c(CN2CCN([S+](C)(=O)[O-])CC2)sc2c(N3CCOCC3)nc(-c3cnc(N)nc3)nc12 | 0.118 | 41.9 | 
15 | C/C=C1\NC(=O)[C@H]2CSSCC/C=C\[C@H](CC(=O)N[C@H](C(C)C)C(=O)N2)OC(=O)[C@H](C(C)C)NC1=O | 0.105 | 6.97 | 
16 | C/C=C(/C)C(=O)O[C@H]1C(C)=C2[C@H]([C@@H]1OC(=O)CCCCCCC)[C@@](C)(OC(C)=O)C[C@H](OC(=O)CCC)[C@@]1(O)[C@H]2OC(=O)[C@@]1(C)O | 0.526 | 57.2 | 
17 | CCN(CC)C(=S)SSC(=S)N(CC)CC |  | 58.9 | 24.8
18 | COCCn1c2c([n+](Cc3cnccn3)c1C)C(=O)c1ccccc1C2=O | 0.187 | 5.13 | 
19 | Cc1ccc([N+](=O)[O-])cc1[S+](=O)([O-])N(C)/N=C/c1cnc2ccc(Br)cn12 | 0.0235 | 8.42 | 
20 | CC(C)C[C@@H](C(=O)N[C@H](C(=O)OC1CCCC1)c1ccccc1)[C@H](O)C(=O)NO | 1.66 | 66.7 | 
21 | CO[C@H]1/C=C/O[C@@]2(C)Oc3c(C)c(O)c4c(O)c(c(/C=N\N5CCN(C6CCCC6)CC5)c(O)c4c3C2=O)NC(=O)/C(C)=C\C=C\[C@H](C)[C@H](O)[C@@H](C)[C@@H](O)[C@@H](C)[C@H](OC(C)=O)[C@@H]1C | 0.296 | 56 | 
22 | CC(=O)SCC(Cc1ccccc1)C(=O)NCC(=O)OCc1ccccc1 (stereo not drawn) | 1.18 | 42.8 | 
23 | CCCCOc1c(C(=O)c2c(F)cc(C)cc2F)cnc2[nH]ncc12 | 8.33 | 75.8 | 
24 | Cc1ccc(C(N)=O)cc1Nc1nccc(-c2cn(C(C)C)c3cnccc23)n1 | 8.33 | 30 | 
25 | CC(C)NC[C@@H](C(=O)N1CCN(c2ncnc3c2[C@H](C)C[C@H]3O)CC1)c1ccc(Cl)cc1 | 2.35 | 76.6 | 
26 | NCC(=O)Nc1ccc(-n2nc(C(F)(F)F)cc2-c2ccc3c(ccc4ccccc43)c2)cc1 | 26.4 | 1.75 | 
27 | CNC(=O)[C@H](Cc1ccccc1)NC(=O)[C@H](CC(C)C)[C@H](CSc1cccs1)C(=O)NO | 5.26 | 68.4 | 
28 | Cc1c(CN2CCN(C(=O)[C@H](C)O)CC2)sc2c(N3CCOCC3)nc(-c3cnc(N)nc3)nc12 | 0.148 | 54.1 | 
29 | CCC[C@@H](C=O)NC(=O)[C@H](CC(C)C)NC(=O)[C@H](CC(C)C)NC(=O)OCc1ccccc1 | 14.8 | 7.94 | 
